This passage reports ATPase activity and Ki results from US20030008922A1, “Multiple drug resistance reversal agent” (priority 2002, published 2003).

In series [1] the target is T1, Pgp (Homo sapiens, UniProt P08183). Description: Pgp ATPase activity (ATP-hydrolysis). As to conditions: values >1 represent stimulation, values <1 represent inhibition. The format is biochemical. The method, then: (§1) Pgp ATPase stimulation activity was determined along with displacement of the prazosin analog, iodoarylazidoprazosin (^125IAAP). Ambudkar, S. V. Methods Enzymol 1998, 292: 504-514; Dey, S. et al. Methods Enzymol. 1998, 292: 318.
T1 sequence (P08183 whole entry): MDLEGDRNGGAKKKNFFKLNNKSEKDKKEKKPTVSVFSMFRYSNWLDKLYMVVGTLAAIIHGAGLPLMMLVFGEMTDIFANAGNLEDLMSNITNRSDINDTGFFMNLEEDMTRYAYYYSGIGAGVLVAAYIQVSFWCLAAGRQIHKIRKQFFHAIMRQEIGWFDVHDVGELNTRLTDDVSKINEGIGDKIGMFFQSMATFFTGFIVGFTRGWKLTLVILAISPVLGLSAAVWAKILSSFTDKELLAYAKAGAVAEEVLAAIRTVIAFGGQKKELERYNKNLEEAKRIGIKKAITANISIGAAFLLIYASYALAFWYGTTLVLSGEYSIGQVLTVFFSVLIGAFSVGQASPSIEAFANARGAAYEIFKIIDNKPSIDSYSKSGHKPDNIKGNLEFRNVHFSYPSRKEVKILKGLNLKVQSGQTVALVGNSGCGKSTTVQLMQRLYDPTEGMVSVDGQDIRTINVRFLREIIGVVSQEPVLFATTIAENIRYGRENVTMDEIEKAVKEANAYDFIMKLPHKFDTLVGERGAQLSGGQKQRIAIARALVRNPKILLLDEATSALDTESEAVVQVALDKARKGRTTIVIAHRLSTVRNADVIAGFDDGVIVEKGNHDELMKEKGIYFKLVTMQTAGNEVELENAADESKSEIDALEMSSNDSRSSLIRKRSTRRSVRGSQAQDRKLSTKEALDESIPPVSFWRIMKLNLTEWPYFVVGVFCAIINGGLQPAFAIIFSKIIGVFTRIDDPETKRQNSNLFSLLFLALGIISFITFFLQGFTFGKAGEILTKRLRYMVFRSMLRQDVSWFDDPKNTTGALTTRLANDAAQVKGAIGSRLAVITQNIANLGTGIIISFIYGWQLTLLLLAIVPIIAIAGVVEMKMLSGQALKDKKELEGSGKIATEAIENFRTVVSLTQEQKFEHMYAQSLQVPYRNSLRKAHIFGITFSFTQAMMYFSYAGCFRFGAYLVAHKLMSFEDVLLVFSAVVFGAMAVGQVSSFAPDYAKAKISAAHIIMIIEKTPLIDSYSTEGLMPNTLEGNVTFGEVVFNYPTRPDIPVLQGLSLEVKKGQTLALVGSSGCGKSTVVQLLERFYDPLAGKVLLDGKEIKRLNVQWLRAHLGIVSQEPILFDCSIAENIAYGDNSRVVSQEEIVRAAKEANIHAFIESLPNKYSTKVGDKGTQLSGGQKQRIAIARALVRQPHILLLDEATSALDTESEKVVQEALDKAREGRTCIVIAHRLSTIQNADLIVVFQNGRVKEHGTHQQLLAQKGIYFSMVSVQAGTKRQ
(§2) The effect of the homodimers of the present invention on ATPase activity and IAAP binding to Pgp are very potent. ATPase stimulation reaches a maximum at low concentration (1 μM) and steadily drops off as the concentration is increased (not shown). In contrast with the other homodimers, the X=5 compound slowly achieves maximum stimulation up to 50 μM and this level is maintained as the concentration increases. The other dimers are similar to the monomeric compounds where maximum stimulation is achieved and rapidly drops off as concentration increases. More surprising are the Pgp displacement of photoaffinity labeled substrate analog by the heterodimers. For example, with the heterodimer where X=12 is shown to bind tightly at 1.7 μM.

Series [2] deals with T1, Pgp. Nature of the series: Inhibition of 125IAAP binding to Pgp (photoaffinity substrate displacement). Here is the method:
as §1, §2

Take `CC(=CCCC#CC=CC(C)C(O)C(C)=CCCc1ccc2ccccc2c1)C(=O)NCCOCCOCCOCCOCCOCCO` (centres unmarked) [compound 16]: the ATPase activity in series [1] is 0.34 fraction of control. Besides, the affinity in series [2] corresponds to a Ki of 7.6 µM.
